According to patent publication US20100297102A1, “SEROTONIN 5-HT3A RECEPTORS IN TREATMENT OF NEUROLOGICAL AND PSYCHIATRIC DISORDERS” (priority 2006, published 2010):

Assays:
[1] = target: T1, 5-HT3 receptor (Mus musculus, UniProt P23979); assay: Whole-cell patch-clamp of 5-HT3 receptor-mediated inward current in EGFP-positive neurons/neuroblasts in acute slices; format: cell-based, mice
T1 sequence (P23979 24-489): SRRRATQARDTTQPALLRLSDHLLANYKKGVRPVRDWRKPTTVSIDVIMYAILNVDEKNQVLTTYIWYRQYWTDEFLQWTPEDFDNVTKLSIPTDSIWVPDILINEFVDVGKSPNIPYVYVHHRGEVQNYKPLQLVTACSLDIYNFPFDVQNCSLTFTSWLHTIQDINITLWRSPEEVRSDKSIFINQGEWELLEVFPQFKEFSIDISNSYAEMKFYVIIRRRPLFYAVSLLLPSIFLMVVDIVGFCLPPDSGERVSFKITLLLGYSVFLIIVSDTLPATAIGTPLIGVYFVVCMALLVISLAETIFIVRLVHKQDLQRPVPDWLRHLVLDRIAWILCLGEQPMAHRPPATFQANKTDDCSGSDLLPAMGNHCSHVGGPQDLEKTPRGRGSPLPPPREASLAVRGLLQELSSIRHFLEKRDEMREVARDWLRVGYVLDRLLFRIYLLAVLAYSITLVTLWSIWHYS
Description: We thus performed patch-clamp recordings from cells with the typical migratory morphology in the DMS using acute sagittal slices from transgenic animals (FIG. 3, A).
Slice preparation and electrophysiology. 250-350 μm-thick parasagittal brain sections (for recordings in hippocampus, cortex, RMS and DMS) or coronal brain sections (for recordings in amygdala) were made from transgenic mice (P8-P42) using a vibratome (Leica VT1000S). Whole-cell voltage and current clamp recordings were made from visually identified, EGFPpositive neurons using and EPC9 amplifier (HEKA) and an upright microscope (Zeiss Axioskop FS2) equipped with IR-DIC and standard epifluorescence. […] Slices were continuously superfused with ACSF containing (in mM): 120 NaCl, 3.5 KCl, 2.5 CaCl2, 1.3 MgSO4, 1.25 NaH2PO4, 25 NaHCO3, 25 glucose. The presence of functional 5-HT3 receptors was assessed by application of 100 μM 5-HT (dissolved in ACSF) via pressure 12 ejection from a second pipette connected to a picospritzer. Cells were voltage clamped at −60 mV. Signals were filtered at 1-5 kHz, sampled at 2-10 kHz and off-line analysis was performed using Igor Pro (Wavemetrics).

[2] = after intraperitoneal injection; cited from earlier work
[3] = system: transgenic mice; assay: Toxicity of BrdU injections in birthdating experiments; format: in vivo
Description: Birthdating analysis. Pregnant mice and P7 transgenic mice were injected intraperitoneally with 50 mg/kg or 300 mg/kg BrdU (Sigma) (body weight), sacrificed after 1 or 4 weeks and processed for immunostaining.
Five BrdU injections (50 mg/kg, intraperitoneally) were administered every 2 hrs apart for 8 hours at E12.5, E14.5, E16.5 and P7 (FIG. 10). […] To avoid a cumulative effect, 5 pulses of BrdU (one pulse per day) were administered from P7 to P12. At P7 two treatments, one with 50 mg/kg and with 300 mg/kg of BrdU were carried.

[4] = system: EGFP-positive cells; assay: Organotypic slice culture: migration/distribution of EGFP-positive neuroblasts; format: cell-based, mice
Description: The presence of functional 5-HT3 receptors on neuroblasts raised the question whether the receptor activation plays a role in the migration and maturation of GABAergic inhibitory neurons in postnatal life. To this end, studies were carried out in organotypic slices obtained from P3 transgenic mice (n=8) and cultured in vitro for 6 days. There were clear alterations in the cortical distribution of EGFP-positive cells in slices treated with the specific 5-HT3 antagonist tropisetron (1 μM) compared to corresponding untreated slices (FIGS. 4, A and B). The decrease in the number of EGFP-expressing cells in tropisetron-treated animals in cortex and hippocampus indicates a deficit in the migration of these cells, rather than cell death since the neuroblasts are still clearly visible in the stream. […] By P3 when slices were made, many EGFP-expressing cells have already reached their destination.
Organotypic slice culture experiments. Organotypic slice cultures were performed as previously described. After 6 days in culture, slices, control or treated with tropisetron (Sigma), were fixed for 1 hr in 4% PFA and processed for immunostaining using polyclonal rabbit anti-EGFP antibody. Cell counts were performed in pairs of matching tropisetron-treated and untreated slices. EGFP-positive cells were counted in deep, in superficial cortical layers and in stratum radiatum of the hippocampus within three standardized rectangular regions of 200×150 μm2 for each region. Data from control and treated slices were analyzed by Student's t test.

[5] = tropisetron 1 μM, slices from P3 transgenic mice, 6 days in culture, n=8

Compound: NCCc1c[nH]c2ccc(O)cc12 [5-HT, 5-hydroxytryptamine]
- 5-HT3 receptor-mediated inward current, average amplitude ([1]; application of 5-HT (100 μM), mature/spiking neuroblasts in the DMS, 18 out of 22 responded): −46.0±10.5 pA

Compound: O=c1[nH]c(=O)n([C@H]2C[C@H](O)[C@@H](CO)O2)cc1Br [BrdU]
- persistence in the circulation [2]: less than a few hours
- toxic effects ([3]; P16 mice after BrdU treatment, 50 mg/kg and 300 mg/kg i.p., dose-dependent): Hair loss and motor deficits
- EGFP-positive cell number in the granule cell layer and periglomerular cell layer of the OB ([3]; at P16, injected at P7 with 50 mg/kg BrdU, compared to untreated transgenic control mice (FIG. 10F)): Reduction
- EGFP-positive cell number in the granule cell layer and periglomerular cell layer of the OB ([3]; at P16, injected at P7 with 300 mg/kg BrdU, compared to untreated transgenic control mice (FIG. 10G)): Reduction
- number of EGFP-positive cells in the cortex, the RMS and OB ([3]; at P16 after postnatal treatment with BrdU): reduction

Compound: CN1[C@@H]2CC[C@H]1C[C@@H](OC(=O)c1cc(Cl)cc(Cl)c1)C2 [MDL72222]
- block of 5-HT3 receptor-mediated inward current evoked by 100 μM 5-HT ([1]; whole-cell voltage clamped EGFP-positive neurons, n=5 (FIG. 1B)): can be blocked

Compound: CN1[C@@H]2CC[C@H]1C[C@@H](OC(=O)c1c[nH]c3ccccc13)C2 [tropisetron]
- cell density in the DMS ([4]; slices from P3 transgenic mice treated with tropisetron, compared to control (FIG. 4)): increase in cell density in the DMS
- number of EGFP positive cells in hippocampus, of control levels ([4]; tropisetron 100 nM, n=3): 74.7%
- number of EGFP positive cells in superficial cortical layers, of control levels ([4]; tropisetron 100 nM, n=3): 81.1%
- number of EGFP positive cells in the deep cortex, of control levels ([4]; tropisetron 100 nM, n=3): 70.8%
- number of EGFP positive cells in deep cortical layers, of the control level [4, 5]: 68.4%
- number of EGFP positive cells in stratum radiatum of the hippocampus, of the control level [4, 5]: 72.6%
- number of EGFP positive cells in superficial layers, of the control level [4, 5]: 76.4%
